The target in one series is T1, RXRα (Homo sapiens, UniProt P19793).
T1 construct: expressed in transfected cells; host or cells: CV-1 African green monkey kidney cells
T1 sequence (P19793 1-462): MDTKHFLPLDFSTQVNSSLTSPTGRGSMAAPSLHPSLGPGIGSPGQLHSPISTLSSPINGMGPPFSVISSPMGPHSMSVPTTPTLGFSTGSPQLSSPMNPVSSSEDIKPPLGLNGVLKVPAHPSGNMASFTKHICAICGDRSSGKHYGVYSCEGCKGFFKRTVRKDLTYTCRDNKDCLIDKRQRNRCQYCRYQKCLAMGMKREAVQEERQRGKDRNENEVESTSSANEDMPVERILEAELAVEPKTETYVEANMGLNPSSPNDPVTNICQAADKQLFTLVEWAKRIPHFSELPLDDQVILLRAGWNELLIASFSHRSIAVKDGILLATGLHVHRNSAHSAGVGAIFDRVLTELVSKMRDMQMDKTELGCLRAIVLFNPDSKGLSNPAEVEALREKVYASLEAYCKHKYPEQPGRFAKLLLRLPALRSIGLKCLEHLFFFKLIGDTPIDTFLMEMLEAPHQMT
As to the kind of experiment: CAT reporter assay with (TREpal)2-tk-CAT and RXRα transfected into CV-1 cells. The class given is cell-based. The conditions noted are these: 9-cis-RA 10^-7 M, BI-1003 1 μM. As for the experimental part: FIGS. 2A and 2B are graphs of relative CAT activity. (TREpal)2-tk-CAT and RXRα were transiently transfected into CV-1 cells. […] CAT activity was determined. […] Error bars represent SEM. FIG. 2C is a graph of relative LUC activity. pBind-RXRα-LBD and pG5luc were transiently transfected into HCT-116 cells. […] Luciferase activity was determined.

Another series deals with T2, RXRα-LBD (Homo sapiens, UniProt P19793).
T2 construct: expressed in transfected cells; host or cells: HCT-116
T2 sequence (P19793 227-458 limits assumed): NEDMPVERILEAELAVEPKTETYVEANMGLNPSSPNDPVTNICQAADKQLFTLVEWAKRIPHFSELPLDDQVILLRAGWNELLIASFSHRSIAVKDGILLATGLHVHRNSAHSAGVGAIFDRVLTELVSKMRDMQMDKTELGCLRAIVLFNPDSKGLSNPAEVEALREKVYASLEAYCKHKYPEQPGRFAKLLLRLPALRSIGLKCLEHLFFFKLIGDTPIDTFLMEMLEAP
As to the kind of experiment: Mammalian one hybrid: Gal4-RXRα-LBD chimera (pBind-RXRα-LBD) and pG5luc reporter in HCT-116 cells. Type of series: cell-based. The conditions noted are these: 9-cis-RA 10^-7 M, BI-1003 1 μM, K-8008 and K-8012 50 μM. As for the experimental part:
FIGS. 2A and 2B are graphs of relative CAT activity. (TREpal)2-tk-CAT and RXRα were transiently transfected into CV-1 cells. […] CAT activity was determined. […] Error bars represent SEM. FIG. 2C is a graph of relative LUC activity. pBind-RXRα-LBD and pG5luc were transiently transfected into HCT-116 cells. […] Luciferase activity was determined. […] HCT-116 cells seeded in 24-well plates were transiently transfected with 50 ng pG5luc, 25 ng pBind-RXRα-LBD. […] Cells were washed, lysed and assayed by using the Dual-Luciferase Reporter Assay System (Promega). Transfection efficiency was normalized to Renilla luciferase activity.

Series [1] concerns A549 lung cancer, PC3 prostate cancer, ZR-75-1 and MB231 breast cancer cells. As to the kind of experiment: MTT cell viability / growth inhibition assay. The class given is cell-based, human. The conditions noted are these: 48 h. As for the experimental part: (§1) Cell viability was measured by the MTT colorimetric assay. FIG. 3B depicts inhibition of TNFα-induced AKT activation. […] Phosphorylated AKT and total AKT were analyzed by immunoblotting.
FIGS. 8A-C are a series of graphs depicting that sulindac and other compounds induce apoptosis of cancer cells. FIG. 8A is a PC3 prostate cancer cell line. FIG. 8B is a ZR-75-1 breast cancer cell line, and FIG. 8C is a MDA-MB-231 breast cancer cell line. Each were treated with the indicated concentration of Sulindac or other compounds for 48 h. Cell viability was determined by the MTT assay.
Confluent cells cultured in 96-well dishes were treated with various concentrations of compounds for 48 h. The cells were then incubated with 2 mg/mL (3-(4,5-Dimethylthiazol-2-yl)-2,5-diphenyltetrazolium bromide (MTT) for 4 h at 37° C. MTT solution was then aspirated and formazan in cells was instantly dissolved by addition of 150 μL DMSO each well. Absorbance was measured at 570 nm.

In series [2] the test system is TNFα-induced AKT activation in A549 lung cancer cells. Description: Inhibition of TNFα-induced AKT activation, immunoblotting. The class given is cell-based, human. The conditions noted are these: pretreated 1 h, TNFα 10 ng/mL 30 min. As for the experimental part: as §1
ZR-75-1 and MB231 breast cancer cells (FIG. 8). A unique property of Sulindac and other compounds are their ability to inhibit TNFα-induced AKT activation (Zhou et al, 2010). […] Similar results were obtained in other cancer cell lines (FIG. 9).
Cells were lysed and equal amounts of the lysates were electrophoresed on 10% SDS-PAGE gels and transferred onto PVDF membranes (Millipore). The membranes were blocked with 5% skimmed milk in TBST [50 mM Tris-HCl (pH7.4), 150 mM NaCl and 0.1% Tween20] for 1 h, then incubated with primary antibodies and secondary antibodies and detected using ECL system (Thermo). The dilutions of the primary antibodies were anti-RXRα (AN 197, Santa Cruz) in 1:1000, anti-PARP(H-250. Santa Cruz) in 1:3000, anti-p85α (Millipore) in 1:1000, anti-p-AKT (D9E, Cell Signaling Technology) in 1:1000, anti-AKT 1/2/3 (H-136, Santa Cruz) in 1:1000, anti-β-actin (Sigma) in 1:5000, anti-c-myc (9E10, Santa Cruz), anti-Flag (FI 804, Sigma).

The test system of the next series is A549 cells. Description: PARP cleavage (apoptosis) with or without TNFα, immunoblotting. The class given is cell-based, human. The conditions noted are these: 4 h; for PARP cleavage, combination with TNFα: 40 μM compound plus TNFα 10 ng/mL. On the technique in general: Immunoblotting shows a protein as a band on a membrane.
In the next series the test system is HepG2 tumor xenografts. As to the kind of experiment: HepG2 tumor xenografts in nude mice. The class given is in vivo. The settings on record: for apparent toxic effects such as loss of body weight: 20 mg/kg daily for 12 days, body weight every 3 days; for reduction of tumor weight: 20 mg/kg intraperitoneally once a day, 12-day treatment. As for the experimental part: FIGS. 4A-4F depict inhibition of HepG2 tumor growth in animals. FIG. 4A is a photograph of tumors. FIG. 4B is a graph of tumor volume. FIG. 4C is a graph of tumor weight. […] Tumors were removed and measured. Tumor sizes and weights in control, K-80003 and K-8008-treated mice were compared. FIG. 4D is a Western blot. Lysates prepared from three tumors treated with vehicle or K-8008 were analyzed by Western blotting assay for p-AKT expression. FIG. 4E is a series of photomicrographs. H&E staining and TUNEL assay. Tumor sections were stained for H&E or TUNEL by immunohistochemistry. […]. FIG. 4F is a graph of body weight. […]. Body weight was measured every three days. Each point represents the mean±standard deviation of six mice. The differences between the compound treated group and control group are not significant (P>5%).
[…]. Nude mice (BALB/c, SPF grade. 16-18 g, 4-5-week old) were housed at 28° C. in a laminar flow under sterilized conditions. Mice were injected subcutaneously with 100 μL HepG2 cells ([…]). […]. Body weight and tumor size were measured every 3 days. Mice were sacrificed after 12-day drug treatment and the tumors removed for various assessments.
Paraffin wax embedded tumors were cut into 5 |iM-thick sections. These sections were deparaffinized and stained with hematoxylin and eosin (H&E) according to the standard protocol. Tumor sections of HepG2 xenografts were also stained with TUNEL for assessing spontaneous apoptosis according to the manufacturer's instructions (In situ Cell Death Detection Kit; Roche). The images were taken under a fluorescent microscope (Carl Zeiss).

Another series has as its target T3, human RXRα-LBD (Homo sapiens, UniProt P19793).
T3 sequence (P19793 223-462): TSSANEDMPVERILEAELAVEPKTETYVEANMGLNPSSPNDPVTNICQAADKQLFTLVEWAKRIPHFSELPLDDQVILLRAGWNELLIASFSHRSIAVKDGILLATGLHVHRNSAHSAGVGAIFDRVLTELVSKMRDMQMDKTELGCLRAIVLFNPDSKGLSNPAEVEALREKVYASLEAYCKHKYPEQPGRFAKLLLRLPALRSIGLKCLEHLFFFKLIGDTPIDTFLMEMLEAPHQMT
As to the kind of experiment: Ligand-binding competition assay with [3H]9-cis-RA. The conditions noted are these: [3H]-9-cis-RA 7.5 nM.

In the next series the test system is cancer cells. The settings on record: literature (Weggen 2001; Yamamoto 1999; Zhang 2000); cited from earlier work.

The values that follow come from patent US20160340324A1, “METHODS AND COMPOSITIONS FOR TREATING CANCER” (Sanford-Burnham Medical Research Institute, priority 2013, published 2016).

On to `CCCOc1cc2c(cc1C(=C1CC1)c1ccc(C(=O)O)cc1)C(C)(C)CCC2(C)C` [BI-1003], for which the “inhibition of 9-cis-RA-induced TREpal reporter activity” value on RXRα is on record as “inhibited”. For the same compound, the “inhibition of 9-cis-RA-induced Ga14 reporter activation” value against RXRα-LBD is recorded as “inhibited”.

For `CC1=C(CCc2nnn[nH]2)c2ccccc2/C1=C\c1ccc(C(C)C)cc1` [Compound K-8008, (Z)-5-(2-(1-(4-iso-Propylbenzylidene)-2-methyl-1H-inden-3-yl)ethyl)-1H-tetrazole], the “inhibition of growth of cancer cells compared to Sulindac” value in series [1] is “much more effective”. In addition, the “TNFα-induced AKT activation” value in series [2] is recorded as “suppressed in a dose dependent manner”. Also, the “PARP cleavage, combination with TNFα” value with A549 cells is “could convert TNFα signaling from survival to death”. The “apoptosis in tumor sections, TUNEL staining” value in the series on HepG2 tumor xenografts (20 mg/kg) is given as “induction of apoptosis”. Besides, in the series on HepG2 tumor xenografts, the “apparent toxic effects such as loss of body weight” value is recorded as “did not show any apparent toxic effects” and the “reduction of tumor weight” value is 61.23%. Moreover, in the series with HepG2 tumor xenografts (20 mg/kg intraperitoneally daily), the “growth of HepG2 tumor” value was “inhibited the growth of HepG2 tumor in a time dependent manner”. Besides, in the series with HepG2 tumor xenografts (three tumors, 20 mg/kg), the “AKT activation (p-AKT) in tumors, Western blotting” value is reported as “reduction of AKT activation”.

In the case of `CC1=C(CCc2nnn[nH]2)c2cc(F)ccc2/C1=C\c1ccc(C(C)C)cc1` [Compound K-8012, (Z)-5-(2-(5-Fluoro-1-(4-isopropylbenzylidene)-2-methyl-1H-inden-3-yl)ethyl)-1H-tetrazole], in series [1], the “inhibition of growth of cancer cells compared to Sulindac” value was “much more effective”. Besides, the “TNFα-induced AKT activation” value in series [2] is “suppressed in a dose dependent manner”. Besides, the “PARP cleavage, combination with TNFα” value in the series with A549 cells was “could convert TNFα signaling from survival to death”.

Turning to `CC1=C(CC(=O)O)c2cc(F)ccc2/C1=C\c1ccc(C(C)C)cc1` [Compound K-80003, reference compound], in the series on HepG2 tumor xenografts, the “apparent toxic effects such as loss of body weight” value is “did not show any apparent toxic effects” and the “reduction of tumor weight” value was determined as 54.84%. Besides, the “competition with [3H]9-cis-RA for binding to the LBP of RXRα” value at human RXRα-LBD is recorded as “competed well”.

`CC1=C(CC(=O)O)c2cc(F)ccc2/C1=C\c1ccc([S+](C)[O-])cc1` (stereo not shown) [Sulindac, reference compound]: the “PARP cleavage, combination with TNFα” value in the series with A549 cells is recorded as “significant induction of PARP cleavage”. The “PARP cleavage, compound alone” value in the series on A549 cells (40 μM, 1% FBS) was “slightly induced PARP cleavage”. Moreover, the “concentration normally used to achieve anti-cancer effects” value in the series with cancer cells is given as “About 100 μM”.
